Laboratory results published in the supplement of paper PMC10307832.

Columns and labels:
Assay in all cases: relative viability (nuclei count vs DMSO), 5 days (fraction); higher = more cells survive
CAL-12T = system: CAL-12T
Outline: (§1)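 Nuclei were stained with Hoechst during a one-step fixation (final 0.05% Triton X-100, 1% formaldehyde, 1 ug/ml Hoechst) carried out 5 days after dosing, then counted on 4× images. The cells, lung cancer lines in 1536-well plates, had been dosed by pin tool the day after seeding with one drug alone or a fixed anchor-drug dose plus five library-drug doses (not always all listed) in √10 steps. Relative viability is the nuclei count in treated wells divided by that in vehicle wells, and each value is the median of duplicate plates.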

LCLC-103H = system: LCLC-103H
Outline: as §1

HCC-366 = system: HCC-366
Outline: as §1

SW 1573 = system: SW 1573
Outline: as §1

HOP-62 = system: HOP-62
Outline: as §1

NCI-H1355 = system: NCI-H1355
Outline: as §1

COR-L 105 = system: COR-L 105
Outline: as §1

HCC-827 = system: HCC-827
Outline: as §1

NCI-H727 = system: NCI-H727
Outline: as §1

NCI-H1755 = system: NCI-H1755
Outline: as §1

A-427 = system: A-427
Outline: as §1

NCI-H2009 = system: NCI-H2009
Outline: as §1

NCI-H23 = system: NCI-H23
Outline: as §1

EMC-BAC-2 = system: EMC-BAC-2
Outline: as §1

NCI-H522 = system: NCI-H522
Outline: as §1

NCI-H2228 = system: NCI-H2228
Outline: as §1

NCI-H1915 = system: NCI-H1915
Outline: as §1

NCI-H1437 = system: NCI-H1437
Outline: as §1

NCI-H1395 = system: NCI-H1395
Outline: as §1

SK-LU-1 = system: SK-LU-1
Outline: as §1

NCI-H460 = system: NCI-H460
Outline: as §1

NCI-H1975 = system: NCI-H1975
Outline: as §1

HARA = system: HARA
Outline: as §1

Q: What does the source list for CC(C)Oc1cc(Nc2nc(N[C@@H](C)c3ccc(F)cn3)ncc2Cl)n[nH]1 [AZ23] + O=C(CCCCCCC(=O)Nc1ccccc1)NO [Vorinostat] (partner 1 µM)?
A: relative viability (CAL-12T; first compound 0.03162 µM): 1.03; relative viability (CAL-12T; first compound 0.3162 µM): 0.88; relative viability (LCLC-103H; first compound 0.01 µM): 0.76; relative viability (LCLC-103H; first compound 0.03162 µM): 0.85; relative viability (LCLC-103H; first compound 0.3162 µM): 0.769; relative viability (HCC-366; first compound 0.01 µM): 0.299; relative viability (HCC-366; first compound 0.03162 µM): 0.428; relative viability (HCC-366; first compound 0.3162 µM): 0.441; relative viability (SW 1573; first compound 0.01 µM): 0.963; relative viability (SW 1573; first compound 0.03162 µM): 0.881; relative viability (SW 1573; first compound 0.3162 µM): 0.757; relative viability (HOP-62; first compound 0.01 µM): 0.527; relative viability (HOP-62; first compound 0.03162 µM): 0.765; relative viability (HOP-62; first compound 0.3162 µM): 0.733; relative viability (NCI-H1355; first compound 0.01 µM): 0.672; relative viability (NCI-H1355; first compound 0.03162 µM): 0.715; relative viability (NCI-H1355; first compound 0.3162 µM): 0.633; relative viability (COR-L 105; first compound 0.01 µM): 0.698; relative viability (COR-L 105; first compound 0.03162 µM): 0.799; relative viability (COR-L 105; first compound 0.3162 µM): 0.841; relative viability (HCC-827; first compound 0.01 µM): 0.964; relative viability (HCC-827; first compound 0.03162 µM): 0.866; relative viability (HCC-827; first compound 0.3162 µM): 0.9; relative viability (NCI-H727; first compound 0.01 µM): 1.07; relative viability (NCI-H727; first compound 0.03162 µM): 1.13; relative viability (NCI-H727; first compound 0.3162 µM): 1.37; relative viability (NCI-H1755; first compound 0.01 µM): 0.854; relative viability (NCI-H1755; first compound 0.03162 µM): 0.714; relative viability (NCI-H1755; first compound 0.3162 µM): 0.805; relative viability (A-427; first compound 0.01 µM): 0.699; relative viability (A-427; first compound 0.03162 µM): 0.892; relative viability (A-427; first compound 0.3162 µM): 0.988; relative viability (NCI-H2009; first compound 0.01 µM): 0.704; relative viability (NCI-H2009; first compound 0.03162 µM): 0.787; relative viability (NCI-H2009; first compound 0.3162 µM): 0.793; relative viability (NCI-H23; first compound 0.03162 µM): 0.62; relative viability (NCI-H23; first compound 0.3162 µM): 0.719; relative viability (EMC-BAC-2; first compound 0.01 µM): 0.333; relative viability (EMC-BAC-2; first compound 0.03162 µM): 0.511; relative viability (EMC-BAC-2; first compound 0.3162 µM): 0.505; relative viability (NCI-H522; first compound 0.01 µM): 0.939; relative viability (NCI-H522; first compound 0.03162 µM): 0.954; relative viability (NCI-H522; first compound 0.3162 µM): 0.934; relative viability (NCI-H2228; first compound 0.01 µM): 0.72; relative viability (NCI-H2228; first compound 0.03162 µM): 0.585; relative viability (NCI-H2228; first compound 0.3162 µM): 0.628; relative viability (NCI-H1915; first compound 0.01 µM): 0.575; relative viability (NCI-H1915; first compound 0.03162 µM): 0.526; relative viability (NCI-H1915; first compound 0.3162 µM): 0.58; relative viability (NCI-H1437; first compound 0.01 µM): 0.981; relative viability (NCI-H1437; first compound 0.03162 µM): 0.929; relative viability (NCI-H1437; first compound 0.3162 µM): 0.809; relative viability (NCI-H1395; first compound 0.03162 µM): 0.685; relative viability (NCI-H1395; first compound 0.3162 µM): 0.799; relative viability (SK-LU-1; first compound 0.03162 µM): 0.801; relative viability (SK-LU-1; first compound 0.3162 µM): 0.759; relative viability (NCI-H460; first compound 0.01 µM): 0.252; relative viability (NCI-H460; first compound 0.03162 µM): 1.06; relative viability (NCI-H460; first compound 0.3162 µM): 0.774; relative viability (NCI-H1975; first compound 0.01 µM): 0.734; relative viability (NCI-H1975; first compound 0.03162 µM): 0.738; relative viability (NCI-H1975; first compound 0.3162 µM): 0.731; relative viability (HARA; first compound 0.01 µM): 0.58; relative viability (HARA; first compound 0.03162 µM): 0.471; relative viability (HARA; first compound 0.3162 µM): 0.383
